Results: the supplement of paper PMC13380429

How the values were obtained:
Conditions in all cases: 72 h
Caco-2 [1] = experiment: cell viability relative to DMSO; higher = less toxic
Calu-3 [2] = experiment: as above
HepG2 [3] = experiment: as above
U2OS [4] = experiment: as above
Vero E6 [5] = experiment: as above
Caco-2 [6] = experiment: relative viability EC50 (midpoint between 100% and the lowest measured viability); higher = less toxic
Calu-3 [7] = experiment: as above
HepG2 [8] = experiment: as above
U2OS [9] = experiment: as above
Vero E6 [10] = experiment: as above
Caco-2 [11] = experiment: drug sensitivity score (DSS) for viability; higher = more toxic; extreme values may be limits of the assay
Calu-3 [12] = experiment: as above
HepG2 [13] = experiment: as above
U2OS [14] = experiment: as above
Vero E6 [15] = experiment: as above

SMILES | cell viability (Caco-2 [1]; 1 nM) [%] | cell viability (Caco-2 [1]; 10 nM) [%] | cell viability (Caco-2 [1]; 100 nM) [%] | cell viability (Caco-2 [1]; 1000 nM) [%] | cell viability (Caco-2 [1]; 10000 nM) [%] | cell viability (Calu-3 [2]; 1 nM) [%] | cell viability (Calu-3 [2]; 10 nM) [%] | cell viability (Calu-3 [2]; 100 nM) [%] | cell viability (Calu-3 [2]; 1000 nM) [%] | cell viability (Calu-3 [2]; 10000 nM) [%] | cell viability (HepG2 [3]; 1 nM) [%] | cell viability (HepG2 [3]; 10 nM) [%] | cell viability (HepG2 [3]; 100 nM) [%] | cell viability (HepG2 [3]; 1000 nM) [%] | cell viability (HepG2 [3]; 10000 nM) [%] | cell viability (U2OS [4]; 1 nM) [%] | cell viability (U2OS [4]; 10 nM) [%] | cell viability (U2OS [4]; 100 nM) [%] | cell viability (U2OS [4]; 1000 nM) [%] | cell viability (U2OS [4]; 10000 nM) [%] | cell viability (Vero E6 [5]; 1 nM) [%] | cell viability (Vero E6 [5]; 10 nM) [%] | cell viability (Vero E6 [5]; 100 nM) [%] | cell viability (Vero E6 [5]; 1000 nM) [%] | cell viability (Vero E6 [5]; 10000 nM) [%] | relative viability EC50 (Caco-2 [6]) [µM] | relative viability EC50 (Calu-3 [7]) [µM] | relative viability EC50 (HepG2 [8]) [µM] | relative viability EC50 (U2OS [9]) [µM] | relative viability EC50 (Vero E6 [10]) [µM] | drug sensitivity score (Caco-2 [11]) | drug sensitivity score (Calu-3 [12]) | drug sensitivity score (HepG2 [13]) | drug sensitivity score (U2OS [14]) | drug sensitivity score (Vero E6 [15])
Nc1ncnc2c1c(-c1cnc3[nH]ccc3c1)nn2C1CCCC1 [PP-121] | 105 | 100 | 90.5 | 43.6 | 13.1 | 98 | 100 | 85.7 | 33.4 | 15.3 | 121 | 106 | 104 | 58.3 | 11.4 | 104 | 98.5 | 97 | 48 | 1.6 | 99.5 | 104 | 102 | 73.7 | 9.3 | 0.596 | 0.355 | 1.05 | 0.933 | 1.43 | 12.1 | 14.2 | 10.2 | 11.6 | 8.9
N[C@]1(C(=O)O)CC[C@@H](C(=O)O)C1 [cis-ACPD] | 102 | 94.7 | 101 | 104 | 94.5 | 95.3 | 101 | 108 | 107 | 101 | 105 | 111 | 99.5 | 96.1 | 103 | 98.7 | 94.1 | 98.1 | 101 | 97.9 | 103 | 99.1 | 99.4 | 98.1 | 102 | > 10 | > 10 | > 10 | > 10 | > 10 | 0 | 0 | 0 | 0 | 0
CCOC(=O)c1ccc(C#Cc2ccc3c(c2)C(C)(C)CCS3)nc1 [tazarotene] | 91.3 | 96.3 | 96.4 | 86 | 83.8 | 99.5 | 101 | 100 | 87.5 | 91.2 | 108 | 92.8 | 119 | 105 | 110 | 93.7 | 98 | 92.2 | 92.2 | 93.6 | 101 | 97.7 | 94.9 | 94.9 | 110 | > 10 | > 10 | > 10 | > 10 | > 10 | 0.7 | 0.7 | 0 | 0 | 0
O=C(O)CCCc1ccccc1 [phenylbutyrate] | 79.8 | 100 | 90.4 | 97 | 107 | 94.6 | 112 | 113 | 109 | 105 | 111 | 81.8 | 105 | 104 | 96.1 | 99.9 | 105 | 104 | 103 | 103 | 106 | 95.6 | 104 | 93.2 | 106 | > 10 | > 10 | > 10 | > 10 | > 10 | 0 | 0 | 0 | 0 | 0
CC(C)NC(=N)NC(=N)Nc1ccc(Cl)cc1 [proguanil] | 101 | 93.5 | 108 | 105 | 106 | 101 | 90.2 | 96 | 93.7 | 95.4 | 94.8 | 100 | 91.8 | 106 | 101 | 98 | 93.3 | 98.6 | 97.1 | 98.3 | 97 | 91.9 | 87.3 | 100 | 94.7 | > 10 | > 10 | > 10 | > 10 | > 10 | 0 | 0 | 0 | 0 | 0
O=C(O)C(=O)CBr [3-bromopyruvate] | 95.5 | 97.1 | 96.5 | 97.2 | 97.9 | 102 | 98 | 105 | 98.9 | 94.2 | 104 | 92.1 | 100 | 99.7 | 101 | 97.7 | 99.4 | 98 | 102 | 104 | 96.7 | 96.6 | 96.9 | 96.7 | 92.8 | > 10 | > 10 | > 10 | > 10 | > 10 | 0 | 0 | 0 | 0 | 0
CC=CC1=C(C(=O)O)N2C(=O)[C@@H](NC(=O)[C@H](N)c3ccc(O)cc3)[C@H]2SC1 (mixture of isomers) [cefprozil] | 101 | 94.3 | 82.7 | 120 | 125 | 86.7 | 94.2 | 81 | 97.8 | 95.5 | 112 | 104 | 100 | 97.2 | 106 | 95.8 | 101 | 96.8 | 99.8 | 98.7 | 110 | 90.7 | 99.9 | 103 | 112 | > 10 | > 10 | > 10 | > 10 | > 10 | 0 | 0 | 0 | 0 | 0
CC(C)=CCC/C(C)=C/CC/C(C)=C/CSc1ccccc1C(=O)O [salirasib] | 93.4 | 97.8 | 98.9 | 96.3 | 92.6 | 104 | 99.6 | 101 | 103 | 99.2 | 98.5 | 98.7 | 93.9 | 98.5 | 94.8 | 102 | 97.3 | 98 | 96.6 | 97.9 | 95.8 | 103 | 97.2 | 97.4 | 97.3 | > 10 | > 10 | > 10 | > 10 | > 10 | 0 | 0 | 0 | 0 | 0
CN(C)c1nc(N(C)C)nc(N(C)C)n1 [altretamine] | 97.8 | 100 | 99.8 | 106 | 89.9 | 92.7 | 95.6 | 111 | 99.3 | 102 | 97.3 | 96.7 | 94.9 | 96 | 93.9 | 100 | 104 | 96.5 | 103 | 97.2 | 104 | 98.3 | 95.5 | 93 | 101 | > 10 | > 10 | > 10 | > 10 | > 10 | 0 | 0 | 0 | 0 | 0
CS(=O)(=O)N1CCc2c(-c3cnc(N)nc3)nc(N3CCOCC3)nc21 | 93.3 | 97.6 | 96.9 | 72 | 33.3 | 94.2 | 96.3 | 98.2 | 70.5 | 29.3 | 111 | 101 | 95.3 | 72.6 | 33.3 | 99.5 | 97.5 | 99.9 | 92 | 47.1 | 104 | 108 | 95.3 | 87.4 | 41.7 | 1.19 | 1.17 | 1.22 | 1.98 | 1.67 | 7 | 7.6 | 6.9 | 4.2 | 5.2
CC(C)CCNc1ncccc1C(=O)N1CCN(Cc2ccccc2)CC1 [NSI-189] | 96.8 | 97.8 | 100 | 92.9 | 106 | 96.3 | 108 | 92.5 | 92.7 | 115 | 108 | 91.5 | 102 | 91.2 | 103 | 97.5 | 98 | 95.5 | 97.8 | 99.3 | 96.5 | 95.7 | 94.9 | 93.3 | 104 | > 10 | > 10 | > 10 | > 10 | > 10 | 0 | 0 | 0 | 0 | 0
CC(C)S(=O)(=O)NC[C@H](C)c1ccc(-c2ccc(CCNS(C)(=O)=O)cc2)cc1 [mibampator] | 96.4 | 100 | 101 | 103 | 83 | 101 | 107 | 99.9 | 99.9 | 86.2 | 107 | 105 | 101 | 88.2 | 32.6 | 99.1 | 102 | 100 | 104 | 94.1 | 90.8 | 98 | 95.1 | 94 | 95.6 | > 10 | > 10 | 1.85 | > 10 | > 10 | 0.3 | 0.2 | 5.7 | 0 | 0
COc1cc(Oc2ccnc3cc(OC)c(OC)cc23)ccc1NC(=O)NC(C)c1nccs1 (stereo not given) | 100 | 104 | 87.7 | 97.2 | 88.2 | 94.5 | 98.7 | 91.6 | 113 | 97.3 | 93.1 | 104 | 91.7 | 98.8 | 87.9 | 95.1 | 98.8 | 93.8 | 95.6 | 90.1 | 100 | 101 | 91 | 96.2 | 95.6 | > 10 | > 10 | > 10 | > 10 | > 10 | 0 | 0 | 0 | 0 | 0
C(#CCN1CCCC1)CN1CCCC1 [tremorine] | 91.8 | 108 | 87.3 | 97.7 | 83.1 | 109 | 104 | 96.3 | 88.3 | 103 | 88.5 | 103 | 100 | 97.8 | 93.6 | 94.9 | 101 | 91.5 | 95.3 | 92.7 | 103 | 108 | 98.5 | 104 | 92 | > 10 | > 10 | > 10 | > 10 | > 10 | 0.3 | 0 | 0 | 0 | 0
Cc1ncc(CO)c(CO)c1O [pyridoxine] | 96.4 | 80.3 | 94.3 | 105 | 88 | 92.2 | 97.2 | 97.1 | 98.5 | 98.6 | 98.5 | 105 | 91 | 96.2 | 107 | 96.7 | 94.2 | 98.1 | 94.6 | 96.8 | 102 | 105 | 97.8 | 108 | 106 | > 10 | > 10 | > 10 | > 10 | > 10 | 0 | 0 | 0 | 0 | 0
